Results reported in ChEMBL document CHEMBL3044737, “Synthesis of biotinylated 18-glycyrrhetinic acid and its effect on tumor cells activity” (Med Chem Res, 2009).
Active and inactive are the calls of the source. The calls are words filed in the database; no cut-off is given here.

Key:
[1] = Stability of the compound in water at 100 uM after 24 hr; assay type: physicochemical; conditions: buffer
[2] = Stability of the compound in RPMI-1640 medium at 100 uM after 6 days; assay type: physicochemical; conditions: 144 h
[3] = test system: B16; experiment: Cytotoxicity against Mus musculus (mouse) B16 cells assessed as reduction of cell number at 50 umol/L after 12 hr by MTT assay; assay type: functional, cell-based
[4] = test system: Bel-7402; experiment: Cytotoxicity against Homo sapiens (human) Bel7402 cells assessed as reduction of cell number at 50 umol/L after 12 hr by MTT assay; assay type: functional, cell-based
[5] = test system: B16; experiment: Cytotoxicity against Mus musculus (mouse) B16 cells assessed as reduction of cell number up to 250 umol/L after 12 hr by MTT assay; assay type: functional, cell-based
[6] = test system: Bel-7402; experiment: Cytotoxicity against Homo sapiens (human) Bel7402 cells assessed as reduction of cell number up to 250 umol/L after 12 hr by MTT assay; assay type: functional, cell-based
[7] = test system: Bel-7402; experiment: Cytotoxicity against Homo sapiens (human) Bel7402 cells assessed as reduction of cell number after 12 hr by MTT assay; assay type: functional, cell-based; conditions: Bel-7402, 12 h
[8] = test system: B16; experiment: Cytotoxicity against Mus musculus (mouse) B16 cells assessed as reduction of cell number after 12 hr by MTT assay; assay type: functional, cell-based; conditions: B16, 12 h

SMILES: CC1(C)[C@@H](O)CC[C@]2(C)[C@H]3C(=O)C=C4[C@@H]5C[C@@](C)(C(=O)O)CC[C@]5(C)CC[C@@]4(C)[C@]3(C)CC[C@@H]12 [ENOXOLONE]
- Stability [1]: Unstable
- Stability [2]: Stable
- Activity [3]: inactive
- Activity [4]: inactive
- Activity [5]: Active
- Activity [6]: Active

SMILES: CC1(C)[C@@H](O)CC[C@]2(C)[C@H]3C(=O)C=C4[C@@H]5C[C@@](C)(C(=O)NCCCCCCNC(=O)CCCC[C@@H]6SC[C@@H]7NC(=O)N[C@@H]76)CC[C@]5(C)CC[C@@]4(C)[C@]3(C)CC[C@@H]12
- Stability [1]: Stable
- Stability [2]: Stable
- IC50 [7]: 175 µM
- Activity [3]: inactive
- Activity [4]: inactive
- Activity [5]: Active
- Activity [6]: Active
- IC50 [8]: 170 µM
